System: human TM cells
Assay: Intracellular volume of human TM cells (14C-urea/14C-sucrose water space or COULTER COUNTER electronic cell sizing), isotonic medium
Format: cell-based
Details: human TM cells
Protocol: The intracellular volume of human and bovine TM cells was evaluated by two methods: 1) radioisotopic evaluation of TM monolayer intracellular water space using ^14C-urea and ^14C-sucrose as markers of total and extracellular space, respectively; and 2) electronic cell sizing of suspended TM cells, using a COULTER COUNTER™ assay (Coulter Electronics, Ltd., Hialeah, Fla.). Details of these methods have been described previously by O'Donnell (O'Donnell, M. E., supra, 1993) the entirety of which is incorporated herein by reference.
By the first method, cell monolayers were preequilibrated for 30 minutes in Hepes MEM at 37° C. in an air atmosphere, then incubated for 20 minutes in Hepes MEM containing 0 or 10 μM bumetamide, ethacrynic acid, or other agents to be tested, and finally incubated for 10 minutes in the same medium containing either ^14C-urea or ^14C-sucrose (both at 1 μCi/ml). Monolayers were then rinsed with isotonic ice-cold MgCl2 and radioactivity of SDS extracts determined by liquid scintillation. Specific activities (counts per minute/ml) of ^14C-urea and ^14C-sucrose in the assay medium were determined and used to calculate water space associated with trapped radioactivity (expressed as μl/mg protein. Intracellular volume was calculated as the difference between the water space determined for ^14C-urea (a marker for intracellular plus trapped extracellular space) and ^14C-sucrose (a marker for trapped extracellular space).
By the second method, TM cells were trypsinized briefly in Ca-free medium, then rinsed with medium containing trypsin inhibitor and suspended in Hepes MEM. Mean cell volumes were then analyzed by electronic cell sizing on a COULTER COUNTER™ radioassay (Model ZM) with channelizer (C256), using at least 50,000 cells per data point and an orifice diameter of 140 μm. Aliquots of suspended cells were diluted into Hepes MEM containing the tonicity and/or agents to be evaluated. Mean cell volumes of each suspension aliquot were followed over time, starting at 1 minute after addition of cells to the assay media. Cell suspensions were maintained at 37° C. throughout the assay period. Absolute volumes (picoliters/cell) were calculated from distribution curves of cell diameter, using a standard curve generated by polystyrene latex beads of known diameter.
Human TM cells were exposed to isotonic medium ±niflumic acid (10 or 100 μM)±10 μM bumetamide. Cell volume was assessed by COULTER COUNTER™ electronic cell sizing over the time course shown, using TM cells in suspension. Note that niflumic acid (NA) alone decreases volume of the TM cells and that exposing the cells to NA plus bumetamide causes a further decrease in TM cell volume. Data represent means of two experiments (all conditions shown tested in both experiments).

O=C(O)c1cccnc1Nc1cccc(C(F)(F)F)c1 [niflumic acid]
TM cell volume in isotonic medium (resting volume) (niflumic acid 10 μM): decreased
TM cell volume in isotonic medium (resting volume) (niflumic acid 100 μM): decreased

— US20020177625A1, “Class of glaucoma drugs to enhance aqueous humor outflow and lower intra-ocular pressure” (The Regents of the University of California, a California …, priority 2001, published 2002)
